Assay results from patent publication US12655116B2, “Substituted isophthalic acid diamides” (Bayer Aktiengesellschaft, priority 2020, dated 2026).

Key:
[1] = test system: ABUTH; assay: Pre-emergence herbicidal action against ABUTH; format: in vivo, Abutilon theophrasti
Summary of the method: (§1)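 Seeds sown in sandy loam, soil-covered; compound sprayed on soil surface pre-emergence. Application: WP/EC, 600–800 l/ha, 0.2% wetting agent. Readout: visual % damage at 3 weeks.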

[2] = test system: ALOMY; assay: Pre-emergence herbicidal action against ALOMY; format: in vivo, Alopecurus myosuroides; conditions: 80 g/ha, pre-emergence, scored visually after 3 weeks vs untreated controls (100% = plants have died, 0% = like control plants)
Summary of the method: as §1

[3] = test system: AMARE; assay: Pre-emergence herbicidal action against AMARE; format: in vivo, Amaranthus retroflexus
Summary of the method: as §1

[4] = test system: AVEFA; assay: Pre-emergence herbicidal action against AVEFA; format: in vivo, Avena fatua; conditions: Avena fatua, 504 h; 80 g/ha, pre-emergence
Summary of the method: as §1

[5] = test system: ECHCG; assay: Pre-emergence herbicidal action against ECHCG; format: in vivo, Echinochloa crus-galli; conditions: 80 g/ha
Summary of the method: as §1

[6] = test system: MATIN; assay: Pre-emergence herbicidal action against MATIN; format: in vivo, Matricaria inodora
Summary of the method: as §1

[7] = test system: PHBPU; assay: Pre-emergence herbicidal action against PHBPU; format: in vivo, Pharbitis purpurea
Summary of the method: as §1

[8] = test system: POLCO; assay: Pre-emergence herbicidal action against POLCO; format: in vivo, Polygonum convolvulus; conditions: dosage 80 g/ha
Summary of the method: as §1

[9] = test system: SETVI; assay: Pre-emergence herbicidal action against SETVI; format: in vivo, Setaria viridis; conditions: dosage 80 g/ha
Summary of the method: as §1

[10] = test system: VERPE; assay: Pre-emergence herbicidal action against VERPE; format: in vivo, Veronica persica; conditions: Veronica persica, 504 h, dosage 80 g/ha
Summary of the method: as §1

[11] = test system: VIOTR; assay: Pre-emergence herbicidal action against VIOTR; format: in vivo, Viola tricolor
Summary of the method: as §1

[12] = test system: DIGSA; assay: Pre-emergence herbicidal action against DIGSA; format: in vivo, Digitaria sanguinalis
Summary of the method: as §1

[13] = test system: ABUTH; assay: Post-emergence herbicidal action against ABUTH; format: in vivo, Abutilon theophrasti; conditions: visual assessment about 3 weeks after treatment vs untreated controls
Summary of the method: (§2)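 Percent herbicidal action is rated by eye about 3 weeks after treatment against untreated controls, where 100% means dead plants and 0% means like controls. Plants in sandy loam are sprayed on green parts at the one-leaf stage with aqueous WP or EC preparations at 600 to 800 l/ha plus 0.2% wetting agent.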

[14] = test system: AMARE; assay: Post-emergence herbicidal action against AMARE; format: in vivo, Amaranthus retroflexus; conditions: 20 g/ha, visual assessment about 3 weeks after treatment, 100% = plants have died, 0% = like control plants
Summary of the method: as §2

[15] = test system: AVEFA; assay: Post-emergence herbicidal action against AVEFA; format: in vivo, Avena fatua; conditions: 20 g/ha, visual assessment about 3 weeks after treatment, 100% = plants have died, 0% = like control plants
Summary of the method: as §2

[16] = test system: ECHCG; assay: Post-emergence herbicidal action against ECHCG; format: in vivo, Echinochloa crus-galli
Summary of the method: as §2

[17] = test system: MATIN; assay: Post-emergence herbicidal action against MATIN; format: in vivo, Matricaria inodora
Summary of the method: as §2

[18] = test system: PHBPU; assay: Post-emergence herbicidal action against PHBPU; format: in vivo, Pharbitis purpurea
Summary of the method: as §2

[19] = test system: SETVI; assay: Post-emergence herbicidal action against SETVI; format: in vivo, Setaria viridis
Summary of the method: as §2

[20] = test system: VERPE; assay: Post-emergence herbicidal action against VERPE; format: in vivo, Veronica persica
Summary of the method: as §2

[21] = test system: VIOTR; assay: Post-emergence herbicidal action against VIOTR; format: in vivo, Viola tricolor
Summary of the method: as §2

[22] = test system: DIGSA; assay: Post-emergence herbicidal action against DIGSA; format: in vivo, Digitaria sanguinalis
Summary of the method: as §2

[23] = test system: ALOMY; assay: Post-emergence herbicidal action against ALOMY; format: in vivo, Alopecurus myosuroides; conditions: dosage 20 g/ha, visual assessment about 3 weeks after treatment vs untreated controls
Summary of the method: as §2

[24] = Tripleurospermum inodorum, 504 h, dosage 20 g/ha
[25] = Ipomoea purpurea, 504 h, dosage 20 g/ha
[26] = 80 g/ha, scored visually after 3 weeks vs untreated controls (100% = plants have died, 0% = like control plants)

CCc1c(C(=O)Nc2nnnn2C)ccc(C(F)F)c1C(=O)NC [Example 1-277]
pest or weed control at 80 g/ha ([1]; Abutilon theophrasti, 504 h, 80 g/ha, scored visually after 3 weeks vs untreated controls (100% = plants have died, 0% = like control plants)): 100% | pest or weed control at 20 g/ha ([1]; Abutilon theophrasti, 504 h, dosage 20 g/ha, scored visually after 3 weeks vs untreated controls, 100% = plants have died, 0% = like control plants, read-out: Pre-emergence action against ABUTH (herbicidal activity in percent)): 90% | pest or weed control at 80 g/ha ([2]; Alopecurus myosuroides, 504 h): 90% | pest or weed control at 20 g/ha ([3]; Amaranthus retroflexus, 504 h, 20 g/ha, scored visually after 3 weeks vs untreated controls, 100% = plants have died, 0% = like control plants): 100% | pest or weed control at 80 g/ha ([3]; Amaranthus retroflexus, 504 h, 80 g/ha, scored visually after 3 weeks vs untreated controls, 100% = plants have died, 0% = like control plants): 100% | pest or weed control at 80 g/ha [4]: 90% | pest or weed control at 80 g/ha ([5]; Echinochloa crus-galli, 504 h): 90% | pest or weed control at 20 g/ha [6, 24]: 90% | pest or weed control at 80 g/ha ([6]; Tripleurospermum inodorum, 504 h, dosage 80 g/ha): 100% | pest or weed control at 20 g/ha [7, 25]: 80% | pest or weed control at 80 g/ha ([7]; Ipomoea purpurea, 504 h, dosage 80 g/ha): 90% | pest or weed control at 80 g/ha ([8]; Fallopia convolvulus, 504 h): 90% | pest or weed control at 80 g/ha ([9]; Setaria viridis, 504 h): 100% | pest or weed control at 80 g/ha [10]: 90% | pest or weed control at 20 g/ha ([11]; Viola tricolor, 504 h, dosage 20 g/ha): 100% | pest or weed control at 80 g/ha ([11]; Viola tricolor, 504 h, dosage 80 g/ha): 100% | pest or weed control at 20 g/ha ([12]; Digitaria sanguinalis, 504 h, dosage 20 g/ha): 100% | pest or weed control at 80 g/ha ([12]; Digitaria sanguinalis, 504 h, dosage 80 g/ha): 100% | pest or weed control at 5 g/ha ([13]; Abutilon theophrasti, 504 h, dosage 5 g/ha): 90% | pest or weed control at 20 g/ha ([13]; Abutilon theophrasti, 504 h, dosage 20 g/ha): 90% | pest or weed control at 20 g/ha ([14]; Amaranthus retroflexus, 504 h): 100% | pest or weed control at 20 g/ha ([15]; Avena fatua, 504 h): 80% | pest or weed control at 20 g/ha ([16]; Echinochloa crus-galli, 504 h, dosage 20 g/ha): 90% | pest or weed control at 5 g/ha ([17]; Tripleurospermum inodorum, 504 h, dosage 5 g/ha): 90% | pest or weed control at 20 g/ha [17, 24]: 90% | pest or weed control at 5 g/ha ([18]; Ipomoea purpurea, 504 h, dosage 5 g/ha): 90% | pest or weed control at 20 g/ha [18, 25]: 90% | pest or weed control at 5 g/ha ([19]; Setaria viridis, 504 h, dosage 5 g/ha): 90% | pest or weed control at 20 g/ha ([19]; Setaria viridis, 504 h, dosage 20 g/ha): 90% | pest or weed control at 5 g/ha ([20]; Veronica persica, 504 h, 5 g/ha): 80% | pest or weed control at 20 g/ha ([20]; Veronica persica, 504 h, 20 g/ha): 90% | pest or weed control at 5 g/ha ([21]; Viola tricolor, 504 h, 5 g/ha): 80% | pest or weed control at 20 g/ha ([21]; Viola tricolor, 504 h, 20 g/ha): 90% | pest or weed control at 5 g/ha ([22]; Digitaria sanguinalis, 504 h, 5 g/ha): 90% | pest or weed control at 20 g/ha ([22]; Digitaria sanguinalis, 504 h, 20 g/ha): 90%

Cn1nnnc1NC(=O)c1ccc(C(F)(F)F)c(C(=O)NCC(F)F)c1C1CC1 [Example 1-291]
Pre-emergence action against ABUTH (herbicidal activity) [1, 26]: 100% | Pre-emergence action against ABUTH (herbicidal activity in percent) ([1]; dosage 20 g/ha, scored visually after 3 weeks vs untreated controls, 100% = plants have died, 0% = like control plants): 100% | Pre-emergence action against ALOMY (herbicidal activity) [2]: 80% | Pre-emergence action against AMARE in % ([3]; 20 g/ha, scored visually after 3 weeks vs untreated controls, 100% = plants have died, 0% = like control plants): 100% | Pre-emergence action against AMARE in % [3, 26]: 100% | Pre-emergence action against ECHCG in % [5]: 90% | Pre-emergence action against MATIN in % ([6]; dosage 20 g/ha): 90% | Pre-emergence action against MATIN in % ([6]; dosage 80 g/ha): 100% | Pre-emergence action against PHBPU in % ([7]; dosage 80 g/ha): 80% | Pre-emergence action against POLCO in % [8]: 80% | Pre-emergence action against SETVI in % [9]: 100% | Pre-emergence action against VIOTR in % ([11]; dosage 20 g/ha): 100% | Pre-emergence action against VIOTR in % ([11]; dosage 80 g/ha): 100% | Pre-emergence action against DIGSA in % ([12]; dosage 20 g/ha): 100% | Pre-emergence action against DIGSA in % ([12]; dosage 80 g/ha): 100% | Post-emergence action against ABUTH in % ([13]; dosage 5 g/ha): 80% | Post-emergence action against ABUTH in % ([13]; dosage 20 g/ha): 90% | Post-emergence action against ALOMY in % [23]: 90% | Post-emergence action at 20 g/ha against AMARE in % [14]: 90% | Post-emergence action at 20 g/ha against AVEFA in % [15]: 80% | Post-emergence action against ECHCG in % ([16]; dosage 5 g/ha): 80% | Post-emergence action against ECHCG in % ([16]; dosage 20 g/ha): 80% | Post-emergence action against MATIN in % ([17]; dosage 5 g/ha): 80% | Post-emergence action against MATIN in % ([17]; dosage 20 g/ha): 90% | Post-emergence action against PHBPU in % ([18]; dosage 5 g/ha): 80% | Post-emergence action against PHBPU in % ([18]; dosage 20 g/ha): 90% | Post-emergence action against SETVI in % ([19]; dosage 20 g/ha): 80% | Post-emergence action against VERPE in % ([20]; 20 g/ha): 80% | Post-emergence action against VIOTR in % ([21]; 5 g/ha): 90% | Post-emergence action against VIOTR in % ([21]; 20 g/ha): 100% | Post-emergence action against DIGSA in % ([22]; 5 g/ha): 90% | Post-emergence action against DIGSA ([22]; 20 g/ha): 100%
